Columns and labels:
Italian ryegrass [1] = test: Test Example 4: herbicidal effect by soil treatment (Table 19, symbol K); assay type: in vivo, Italian ryegrass (Lolium multiflorum); conditions: AAH 320 g/ha
Outline: (§1)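 Applied as a water-diluted emulsion, the compound was sprayed onto soil covering newly sown seeds. Evaluation came three weeks after application, in a greenhouse held at 25° C. to 30° C.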

Italian ryegrass [2] = test: Test Example 5: herbicidal effect by foliage application, plastic box (Table 20, symbol K); assay type: in vivo, Italian ryegrass (Lolium multiflorum); conditions: foliage application, AAH 320 g/ha, three weeks after application
Outline: (§2)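 Sow seeds spot-wise in sterilized diluvial soil; cover with ~1.5 cm soil. Grow 14 days in greenhouse, 25° C. to 30° C. Spray foliage with emulsion diluted to predetermined amount. Rate effect after 3 weeks.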

barnyard grass [3] = test: Test Example 5: herbicidal effect by foliage application, plastic box (Table 20, symbol H); assay type: in vivo, barnyard grass (Echinochloa crus-galli); conditions: foliage application, AAH 320 g/ha, three weeks after application
Outline: as §2

wild oat [4] = test: Test Example 5: herbicidal effect by foliage application, plastic box (Table 20, symbol I); assay type: in vivo, wild oat (Avena fatua); conditions: foliage application, AAH 320 g/ha, three weeks after application
Outline: as §2

persian speedwell [5] = test: Test Example 5: herbicidal effect by foliage application, plastic box (Table 20, symbol R); assay type: in vivo, Persian speedwell (Veronica persica); conditions: foliage application, AAH 320 g/ha, three weeks after application
Outline: as §2

redroot pigweed [6] = test: Test Example 5: herbicidal effect by foliage application, plastic box (Table 20, symbol N); assay type: in vivo, redroot pigweed (Amaranthus retroflexus); conditions: foliage application, AAH 320 g/ha, three weeks after application
Outline: as §2

southern crabgrass [7] = test: Test Example 4: herbicidal effect by soil treatment (Table 19, symbol F); assay type: in vivo, southern crabgrass (Digitaria ciliaris); conditions: AAH 320 g/ha
Outline: as §1

oval-leafed pondweed = test: Test Example 1: herbicidal activity, application before weed generation under submerged conditions (Table 16, symbol C); assay type: in vivo, oval-leafed pondweed (Monochoria vaginalis); conditions: 320 g/ha applied herbicide
Outline: (§3)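 Submerged Wagner pots (alluvial soil, 4 cm water) sown with weed seeds and planted with 2.5-leaf rice seedlings; emulsifiable concentrate diluted in water applied to water surface on sowing day. Held in greenhouse at 25-30 °C; injury scored 0-5 by herbicidal rate after three weeks.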

windgrass [8] = test: Test Example 4: herbicidal effect by soil treatment (Table 19, symbol L); assay type: in vivo, windgrass (Apera spica-venti); conditions: AAH 320 g/ha
Outline: as §1

green foxtail [9] = test: Test Example 5: herbicidal effect by foliage application, plastic box (Table 20, symbol G); assay type: in vivo, green foxtail (Setaria viridis); conditions: foliage application, AAH 320 g/ha, three weeks after application
Outline: as §2

late watergrass = test: Test Example 1: herbicidal activity, application before weed generation under submerged conditions (Table 16, symbol A); assay type: in vivo, late watergrass (Echinochloa oryzicola); conditions: 320 g/ha applied herbicide
Outline: as §3

wild oat [10] = test: Test Example 4: herbicidal effect by soil treatment (Table 19, symbol I); assay type: in vivo, wild oat (Avena fatua); conditions: AAH 320 g/ha
Outline: as §1

lambsquarters [11] = test: Test Example 4: herbicidal effect by soil treatment (Table 19, symbol O); assay type: in vivo, lambsquarters (Chenopodium album); conditions: AAH 320 g/ha
Outline: as §1

chickweed [12] = test: Test Example 5: herbicidal effect by foliage application, plastic box (Table 20, symbol P); assay type: in vivo, common chickweed (Stellaria media); conditions: foliage application, AAH 320 g/ha, three weeks after application
Outline: as §2

redroot pigweed [13] = test: Test Example 4: herbicidal effect by soil treatment (Table 19, symbol N); assay type: in vivo, redroot pigweed (Amaranthus retroflexus); conditions: AAH 320 g/ha
Outline: as §1

lambsquarters [14] = test: Test Example 5: herbicidal effect by foliage application, plastic box (Table 20, symbol O); assay type: in vivo, lambsquarters (Chenopodium album); conditions: foliage application, AAH 320 g/ha, three weeks after application
Outline: as §2

rice flat sedge = test: Test Example 3: herbicidal effect by foliage application, Wagner pot (Table 18, symbol E); assay type: in vivo, rice flat sedge (Cyperus iria); conditions: 320 g/ha
Outline: (§4)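 Plants were sown in alluvial soil held under 0.1–0.5 cm standing water and grown 14 days in a greenhouse at 25–30 °C. An emulsifiable formulation, water-diluted to the set dose, was then sprayed onto the foliage, and effects were scored three weeks later using previously defined criteria.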

barnyard grass [15] = test: Test Example 4: herbicidal effect by soil treatment (Table 19, symbol H); assay type: in vivo, barnyard grass (Echinochloa crus-galli); conditions: AAH 320 g/ha
Outline: as §1

windgrass [16] = test: Test Example 5: herbicidal effect by foliage application, plastic box (Table 20, symbol L); assay type: in vivo, windgrass (Apera spica-venti); conditions: foliage application, AAH 320 g/ha, three weeks after application
Outline: as §2

Chinese sprangletop = test: Test Example 3: herbicidal effect by foliage application, Wagner pot (Table 18, symbol D); assay type: in vivo, chinese sprangletop (Leptochloa chinensis); conditions: 320 g/ha
Outline: as §4

velvetleaf [17] = test: Test Example 5: herbicidal effect by foliage application, plastic box (Table 20, symbol M); assay type: in vivo, velvetleaf (Abutilon theophrasti); conditions: foliage application, AAH 320 g/ha, three weeks after application
Outline: as §2

chickweed [18] = test: Test Example 4: herbicidal effect by soil treatment (Table 19, symbol P); assay type: in vivo, common chickweed (Stellaria media); conditions: AAH 320 g/ha
Outline: as §1

green foxtail [19] = test: Test Example 4: herbicidal effect by soil treatment (Table 19, symbol G); assay type: in vivo, green foxtail (Setaria viridis); conditions: AAH 320 g/ha
Outline: as §1

false cleavers = test: Test Example 5: herbicidal effect by foliage application, plastic box (Table 20, symbol Q); assay type: in vivo, false cleavers (Galium spurium); conditions: foliage application, AAH 320 g/ha, three weeks after application
Outline: as §2

persian speedwell [20] = test: Test Example 4: herbicidal effect by soil treatment (Table 19, symbol R); assay type: in vivo, Persian speedwell (Veronica persica); conditions: AAH 320 g/ha
Outline: as §1

velvetleaf [21] = test: Test Example 4: herbicidal effect by soil treatment (Table 19, symbol M); assay type: in vivo, velvetleaf (Abutilon theophrasti); conditions: AAH 320 g/ha
Outline: as §1

southern crabgrass [22] = test: Test Example 5: herbicidal effect by foliage application, plastic box (Table 20, symbol F); assay type: in vivo, southern crabgrass (Digitaria ciliaris); conditions: foliage application, AAH 320 g/ha, three weeks after application
Outline: as §2

blackgrass = test: Test Example 5: herbicidal effect by foliage application, plastic box (Table 20, symbol J); assay type: in vivo, blackgrass (Alopecurus myosuroides); conditions: foliage application, AAH 320 g/ha, three weeks after application
Outline: as §2

Japanese bulrush = test: Test Example 1: herbicidal activity, application before weed generation under submerged conditions (Table 16, symbol B); assay type: in vivo, Japanese bulrush (Schoenoplectus juncoides); conditions: 320 g/ha applied herbicide
Outline: as §3

barnyard grass [23] = test: Test Example 3: herbicidal effect by foliage application, Wagner pot (Table 18, symbol H); assay type: in vivo, barnyard grass (Echinochloa crus-galli); conditions: 320 g/ha
Outline: as §4

SMILES: Cc1nn(C)c(=O)c(-c2c(-c3ccccc3OCC3CC3)sc3ccccc23)c1O [1-113]
- K: Italian ryegrass, herbicidal effect rating (Italian ryegrass [1]): 0 (Herbicidal rate of 5% or less (almost no effect))
- K: Italian ryegrass, herbicidal effect (Italian ryegrass [2]): 1 (Herbicidal rate of 5% or more and less than 20%)
- H: barnyard grass, herbicidal effect (barnyard grass [3]): 1 (Herbicidal rate of 5% or more and less than 20%)
- I: wild oat, herbicidal effect (wild oat [4]): 1 (Herbicidal rate of 5% or more and less than 20%)
- R: persian speedwell, herbicidal effect (persian speedwell [5]): 5 (Herbicidal rate of 90% or more (almost completely withered))
- N: redroot pigweed, herbicidal effect (redroot pigweed [6]): 0 (Herbicidal rate of 5% or less (almost no effect))
- F: southern crabgrass, herbicidal effect rating (southern crabgrass [7]): 2 (Herbicidal rate of 20% or more and less than 40%)
- Herbicidal effect on C: oval-leafed pondweed (grade 0-5) (oval-leafed pondweed): 0 (Herbicidal rate of 5% or less (almost no effect))
- L: windgrass, herbicidal effect rating (windgrass [8]): 0 (Herbicidal rate of 5% or less (almost no effect))
- G: green foxtail, herbicidal effect (green foxtail [9]): 0 (Herbicidal rate of 5% or less (almost no effect))
- Herbicidal effect on A: late watergrass (grade 0-5) (late watergrass): 3 (Herbicidal rate of 40% or more and less than 70%)
- I: wild oat, herbicidal effect rating (wild oat [10]): 1 (Herbicidal rate of 5% or more and less than 20%)
- O: lambsquarters, herbicidal effect rating (lambsquarters [11]): 2 (Herbicidal rate of 20% or more and less than 40%)
- P: chickweed, herbicidal effect (chickweed [12]): 5 (Herbicidal rate of 90% or more (almost completely withered))
- N: redroot pigweed, herbicidal effect rating (redroot pigweed [13]): 3 (Herbicidal rate of 40% or more and less than 70%)
- O: lambsquarters, herbicidal effect (lambsquarters [14]): 0 (Herbicidal rate of 5% or less (almost no effect))
- herbicidal effect on E (rice flat sedge), rating 0-5 (rice flat sedge): 3 (Herbicidal rate of 40% or more and less than 70%)
- H: barnyard grass, herbicidal effect rating (barnyard grass [15]): 3 (Herbicidal rate of 40% or more and less than 70%)
- L: windgrass, herbicidal effect (windgrass [16]): 2 (Herbicidal rate of 20% or more and less than 40%)
- herbicidal effect on D (Chinese sprangletop), rating 0-5 (Chinese sprangletop): 0 (Herbicidal rate of 5% or less (almost no effect))
- M: velvetleaf, herbicidal effect (velvetleaf [17]): 3 (Herbicidal rate of 40% or more and less than 70%)
- P: chickweed, herbicidal effect rating (chickweed [18]): 4 (Herbicidal rate of 70% or more and less than 90%)
- G: green foxtail, herbicidal effect rating (green foxtail [19]): 1 (Herbicidal rate of 5% or more and less than 20%)
- Q: false cleavers, herbicidal effect (false cleavers): 5 (Herbicidal rate of 90% or more (almost completely withered))
- R: persian speedwell, herbicidal effect rating (persian speedwell [20]): 5 (Herbicidal rate of 90% or more (almost completely withered))
- M: velvetleaf, herbicidal effect rating (velvetleaf [21]): 0 (Herbicidal rate of 5% or less (almost no effect))
- F: southern crabgrass, herbicidal effect (southern crabgrass [22]): 0 (Herbicidal rate of 5% or less (almost no effect))
- J: blackgrass, herbicidal effect (blackgrass): 3 (Herbicidal rate of 40% or more and less than 70%)
- Herbicidal effect on B: Japanese bulrush (grade 0-5) (Japanese bulrush): 0 (Herbicidal rate of 5% or less (almost no effect))
- herbicidal effect on H (barnyard grass), rating 0-5 (barnyard grass [23]): 4 (Herbicidal rate of 70% or more and less than 90%)
